The results in this text go back to the NIST ThermoML archive (doi:10.1016/j.jct.2011.04.018).

± gives the expanded uncertainty stated by the source.

The nature of this data set: activity coefficient (dimensionless); of the first substance listed, at infinite dilution; xn = mol fraction of the nth substance listed. The conditions noted are these: 101 kPa, Liquid, Chromatography, x1 = 0.

Take `C#CCCCC` [1-hexyne] + O=S(=O)([N-]S(=O)(=O)C(F)(F)F)C(F)(F)F.OCCC[n+]1ccccc1: the activity coefficient reads like this: (308.15 K) 6.38 ± 0.43; (318.15 K) 6.25 ± 0.43; (328.15 K) 6.13 ± 0.42; (338.15 K) 6 ± 0.41; (348.15 K) 5.91 ± 0.4; (358.15 K) 5.8 ± 0.4. Besides, the activity coefficient (368.15 K) amounted to 5.72 ± 0.39.
`Cc1ccccc1C` [1,2-dimethylbenzene] + O=S(=O)([N-]S(=O)(=O)C(F)(F)F)C(F)(F)F.OCCC[n+]1ccccc1: the activity coefficient was 3.11 ± 0.21 (318.15 K); 3.12 ± 0.21 (328.15 K); 3.13 ± 0.21 (338.15 K); 3.13 ± 0.21 (348.15 K); 3.14 ± 0.21 (358.15 K); 3.15 ± 0.21 (368.15 K). In addition, the activity coefficient (378.15 K) worked out at 3.15 ± 0.21.
On to `CCc1ccccc1` [ethylbenzene] + O=S(=O)([N-]S(=O)(=O)C(F)(F)F)C(F)(F)F.OCCC[n+]1ccccc1, for which the activity coefficient reads like this: (318.15 K) 3.96 ± 0.27; (328.15 K) 3.93 ± 0.27; (338.15 K) 3.9 ± 0.27; (348.15 K) 3.87 ± 0.26; (358.15 K) 3.84 ± 0.26; (368.15 K) 3.82 ± 0.26. The activity coefficient (378.15 K) came out at 3.79 ± 0.26.
Turning to `CCCCCCCCCC` [decane] + O=S(=O)([N-]S(=O)(=O)C(F)(F)F)C(F)(F)F.OCCC[n+]1ccccc1, the activity coefficient is, setting by setting: (308.15 K) 327 ± 22; (318.15 K) 284 ± 20; (328.15 K) 245 ± 17; (338.15 K) 214 ± 15; (348.15 K) 190 ± 13; (358.15 K) 168 ± 12. Further, the activity coefficient (368.15 K) was 150 ± 10.
Take `C#CCCCCCC` [1-octyne] + O=S(=O)([N-]S(=O)(=O)C(F)(F)F)C(F)(F)F.OCCC[n+]1ccccc1: the activity coefficient was found to be 16.2 ± 1.1 (308.15 K); 15.5 ± 1.1 (318.15 K); 14.9 ± 1 (328.15 K); 14.2 ± 1 (338.15 K); 13.7 ± 0.9 (348.15 K); 13.2 ± 0.9 (358.15 K). In addition, the activity coefficient (368.15 K) worked out at 12.7 ± 0.9.
